# Laboratory results as given in US11214538B2, “Farnesoid X receptor agonists and uses thereof” (Metacrine, Inc., priority 2015, dated 2022).
# Target: T1, hFXR (Homo sapiens, UniProt Q96RI1)
# T1 construct: expressed in transfected cells; host or cells: CV-1 cells
# T1 sequence (Q96RI1 1-486): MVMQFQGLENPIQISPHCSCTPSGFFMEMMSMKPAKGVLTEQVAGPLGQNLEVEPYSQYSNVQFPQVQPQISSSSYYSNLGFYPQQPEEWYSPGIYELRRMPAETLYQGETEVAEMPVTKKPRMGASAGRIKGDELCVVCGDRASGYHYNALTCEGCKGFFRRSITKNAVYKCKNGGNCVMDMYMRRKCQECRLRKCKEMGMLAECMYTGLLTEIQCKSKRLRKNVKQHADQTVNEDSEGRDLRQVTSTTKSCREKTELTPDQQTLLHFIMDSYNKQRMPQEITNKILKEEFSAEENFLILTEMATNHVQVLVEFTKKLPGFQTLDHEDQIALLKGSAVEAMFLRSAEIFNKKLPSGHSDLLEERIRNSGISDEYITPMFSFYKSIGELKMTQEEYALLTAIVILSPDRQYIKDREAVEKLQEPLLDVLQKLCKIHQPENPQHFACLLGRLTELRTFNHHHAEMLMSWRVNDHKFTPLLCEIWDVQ
# T1 sequence (P19793 1-462 partner): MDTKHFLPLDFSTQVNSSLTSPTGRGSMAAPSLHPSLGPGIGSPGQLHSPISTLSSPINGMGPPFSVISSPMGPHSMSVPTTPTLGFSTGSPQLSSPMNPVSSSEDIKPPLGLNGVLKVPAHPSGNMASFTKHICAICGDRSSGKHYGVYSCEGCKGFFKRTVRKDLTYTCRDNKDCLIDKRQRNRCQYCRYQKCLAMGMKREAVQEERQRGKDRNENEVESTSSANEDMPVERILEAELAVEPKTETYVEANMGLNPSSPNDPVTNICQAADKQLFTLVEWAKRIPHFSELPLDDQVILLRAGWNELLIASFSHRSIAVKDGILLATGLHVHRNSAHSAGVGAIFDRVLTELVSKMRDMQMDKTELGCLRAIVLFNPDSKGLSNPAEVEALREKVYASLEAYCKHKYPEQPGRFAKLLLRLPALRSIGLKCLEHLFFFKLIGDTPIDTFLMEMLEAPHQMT
# Test: In Vitro FXR Assay (TK), luciferase reporter in transfected CV-1 cells
# Type: cell-based
# Conditions: CV-1 cells transfected with hFXR, hRXR, TK-ECRE-luc; 18 hrs incubation; luminescence; compounds with a maximum efficacy of <25% of the Fexaramine control classified as '+'
# Description: Example B-2: In Vitro FXR Assay (TK)
# CV-1 cells were seeded at a density of 2,000,000 cells in a T175 flask with DMEM+10% charcoal double-stripped FBS and incubated at 37° C. in 5% CO2 for 18 h (O/N).
# After 18 h of incubation, the medium in the T175 flask was changed with fresh DMEM+10% charcoal super-stripped serum. In a polypropylene tube, 2500 μL OptiMEM (Life Technologies, Cat #31985-062) was combined with expression plasmids for hFXR, hRXR, TK-ECRE-luc and pCMX-YFP. The tube was then briefly vortexed and incubated at room temperature for 5 minutes. Transfection reagent (X-tremeGENE HP from Roche, Cat #06 366 236 001) was added to the OptiMEM/plasmid mixture vortexed and incubated at room temperature for 20 minutes. Following incubation, the transfection reagent/DNA mixture complex was added to cells in the T175 flask and the cells were incubated at 37° C. in 5% CO2 for 18 h (O/N).
# Compounds were serially diluted in DMSO and added to transfected CV-1 cells. The cells were then incubated for 18 hrs. The next day cells were lysed and examined for luminescence.
row,EC50,SMILES
1,≤ 3 µM,"COc1ccc(-c2cccc(N(Cc3ccc(-c4ccc(N(C)C)cc4)cc3)C(=O)C3CCCCC3)c2)cc1 [Compound 3.1, N-((4′-(Dimethylamino)-[1,1′-biphenyl]-4-yl)methyl)-N-(4′-methoxy-[1,1′-biphenyl]-3-yl)cyclohexanecarboxamide]"
2,≤ 3 µM,"CN(C)c1ccc(-c2ccc(CN(C(=O)C3CCCCC3)c3cccc(CCc4ncco4)c3)cc2)cc1 [Compound 22, N-((4′-(Dimethylamino)-[1,1′-biphenyl]-4-yl)methyl)-N-(3-(2-(oxazol-2-yl)ethyl)phenyl)cyclohexanecarboxamide]"
3,3 to 10 µM,"CN(C)c1ccc(-c2ccc(CN(C(=O)C3CCCCC3)c3cccc(-c4cccnc4)c3)cc2)cc1 [Compound 23, N-((4′-(Dimethylamino)-[1,1′-biphenyl]-4-yl)methyl)-N-(3-(pyridin-3-yl)phenyl)cyclohexanecarboxamide]"
4,3 to 10 µM,"Cc1cncc(-c2cccc(N(Cc3ccc(-c4ccc(N(C)C)cc4)cc3)C(=O)C3CCCCC3)c2)c1 [Compound 24, N-((4′-(Dimethylamino)-[1,1′-biphenyl]-4-yl)methyl)-N-(3-(5-methylpyridin-3-yl)phenyl)cyclohexanecarboxamide]"
5,≤ 3 µM,"CN(C)c1ccc(-c2ccc(CN(C(=O)C3CCCCC3)c3cccc(/C=C/c4ccccn4)c3)cc2)cc1 [Compound 27, (E)-N-((4′-(Dimethylamino)-[1,1′-biphenyl]-4-yl)methyl)-N-(3-(2-(pyridin-2-yl)vinyl)phenyl)cyclohexanecarboxamide]"
6,3 to 10 µM,"CN(C)c1ccc(-c2ccc(CN(C(=O)C3CCCCC3)c3cccc(/C=C/c4ccncc4)c3)cc2)cc1 [Compound 28, (E)-N-((4′-(Dimethylamino)-[1,1′-biphenyl]-4-yl)methyl)-N-(3-(2-(pyridin-4-yl)vinyl)phenyl)cyclohexanecarboxamide]"
7,≤ 3 µM,"COc1ncc(-c2cccc(N(Cc3ccc(-c4ccc(N(C)C)cc4)cc3)C(=O)C3CCCCC3)c2)s1 [Compound 29, N-((4′-(Dimethylamino)-[1,1′-biphenyl]-4-yl)methyl)-N-(3-(2-methoxythiazol-5-yl)phenyl)cyclohexanecarboxamide]"
8,≤ 3 µM,"COc1ccc(-c2cccc(N(Cc3ccc(-c4ccc(N(C)C)cc4)cc3)C(=O)C3CCCCC3)c2)s1 [Compound 31, N-((4′-(Dimethylamino)-[1,1′-biphenyl]-4-yl)methyl)-N-(3-(5-methoxythiophen-2-yl)phenyl)cyclohexanecarboxamide]"
9,3 to 10 µM,"CCc1cncc(-c2cccc(N(Cc3ccc(-c4ccc(N(C)C)cc4)cc3)C(=O)C3CCCCC3)c2)c1 [Compound 33, N-((4′-(Dimethylamino)-[1,1′-biphenyl]-4-yl)methyl)-N-(3-(5-ethylpyridin-3-yl)phenyl)cyclohexanecarboxamide]"
10,≤ 3 µM,"COc1cc(-c2cccc(N(Cc3ccc(-c4ccc(N(C)C)cc4)cc3)C(=O)C3CCCCC3)c2)ncn1 [Compound 35, N-((4′-(Dimethylamino)-[1,1′-biphenyl]-4-yl)methyl)-N-(3-(6-methoxypyrimidin-4-yl)phenyl)cyclohexanecarboxamide]"
11,≤ 3 µM,"COc1cc(-c2cccc(N(Cc3ccc(-c4ccc(N(C)C)cc4)cc3)C(=O)C3CCCCC3)c2)sn1 [Compound 43, N-((4′-(Dimethylamino)-[1,1′-biphenyl]-4-yl)methyl)-N-(3-(3-methoxyisothiazol-5-yl)phenyl)cyclohexanecarboxamide]"
12,≤ 3 µM,"CN(C)c1ccc(-c2ccc(CN(C(=O)C3CCCCC3)c3cccc(-c4cc(=O)n(C)s4)c3)cc2)cc1 [Compound 44, N-((4′-(Dimethylamino)-[1,1′-biphenyl]-4-yl)methyl)-N-(3-(2-methyl-3-oxo-2,3-dihydroisothiazol-5-yl)phenyl)cyclohexanecarboxamide]"
13,≤ 3 µM,"COc1ccc([C@H]2CC[C@H](CN(c3cccc(N4CC(OC)C4)c3)C(=O)[C@H]3CC[C@H](O)CC3)CC2)cc1C [Compound 45, trans-4-Hydroxy-N-((trans-4-(4-methoxy-3-methylphenyl)cyclohexyl)methyl)-N-(3-(3-methoxyazetidin-1-yl)phenyl)cyclohexanecarboxamide]"
14,≤ 3 µM,"COCC1CN(c2cccc(N(C[C@H]3CC[C@H](c4ccc(OC)c(C)c4)CC3)C(=O)[C@H]3CC[C@H](O)CC3)c2)C1 [Compound 46, trans-4-Hydroxy-N-((trans-4-(4-methoxy-3-methylphenyl)cyclohexyl)methyl)-N-(3-(3-(methoxymethyl)azetidin-1-yl)phenyl)cyclohexanecarboxamide]"
15,3 to 10 µM,"COc1ccc([C@H]2CC[C@H](CN(c3cccc(N4CCC(OC)C4)c3)C(=O)[C@H]3CC[C@H](O)CC3)CC2)cc1C (stereo partly drawn) [Compound 47, trans-4-Hydroxy-N-((trans-4-(4-methoxy-3-methylphenyl)cyclohexyl)methyl)-N-(3-(3-methoxypyrrolidin-1-yl)phenyl)cyclohexanecarboxamide]"
16,3 to 10 µM,"COCC1CCN(c2cccc(N(C[C@H]3CC[C@H](c4ccc(OC)c(C)c4)CC3)C(=O)[C@H]3CC[C@H](O)CC3)c2)C1 (stereo partly drawn) [Compound 48, trans-4-Hydroxy-N-((trans-4-(4-methoxy-3-methylphenyl)cyclohexyl)methyl)-N-(3-(3-(methoxymethyl)pyrrolidin-1-yl)phenyl)cyclohexanecarboxamide]"
17,≤ 3 µM,"COc1ccc([C@H]2CC[C@H](CN(c3cccc(N4CCC(OC)CC4)c3)C(=O)[C@H]3CC[C@H](O)CC3)CC2)cc1C [Compound 49, trans-4-Hydroxy-N-((trans-4-(4-methoxy-3-methylphenyl)cyclohexyl)methyl)-N-(3-(4-methoxypiperidin-1-yl)phenyl)cyclohexanecarboxamide]"
